Results: patent US12371748B2, “Genetic markers for predicting responsiveness to therapy with HDL-raising or HDL mimicking agent” (Hoffmann-La Roche Inc., priority 2014, dated 2025)
Read-outs that look alike come from different tables or passages of the source.

What was measured:
[1] = humans; cited from earlier work
[2] = rabbits; cited from earlier work
CETP = target: T1, CETP (Homo sapiens, UniProt P11597); settings: humans; cited from earlier work
T1 construct: host or cells: humans (in vivo; endogenous plasma CETP)
T1 sequence (P11597 18-493): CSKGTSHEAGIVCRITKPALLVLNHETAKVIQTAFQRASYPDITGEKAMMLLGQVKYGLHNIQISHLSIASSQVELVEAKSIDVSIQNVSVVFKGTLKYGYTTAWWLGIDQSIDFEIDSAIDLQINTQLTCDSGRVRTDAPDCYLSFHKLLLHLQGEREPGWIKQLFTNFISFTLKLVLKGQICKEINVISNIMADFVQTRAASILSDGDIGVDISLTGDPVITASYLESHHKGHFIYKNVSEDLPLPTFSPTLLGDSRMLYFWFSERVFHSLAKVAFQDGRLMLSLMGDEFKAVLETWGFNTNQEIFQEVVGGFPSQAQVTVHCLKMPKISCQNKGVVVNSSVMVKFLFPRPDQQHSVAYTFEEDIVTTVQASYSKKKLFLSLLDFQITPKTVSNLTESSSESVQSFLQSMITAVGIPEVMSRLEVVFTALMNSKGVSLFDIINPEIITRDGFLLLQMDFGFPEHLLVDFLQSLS

[3] = dal-OUTCOMES: change in plasma lipids by rs1967309 genotype; assay type: in vivo, human; settings: for change in total cholesterol at 1 month: dalcetrapib arm
Method: All patients were following individualized programs to target LDL cholesterol levels of 100 mg per deciliter (2.6 mmol per liter) or lower by statin if tolerated and diet. No specific statin agent was specified, and patients were not excluded based on LDL cholesterol values. Patients with serum triglyceride levels of 400 mg per deciliter (4.5 mmol per liter) or higher were excluded. (Schwartz G G et al. N Engl J Med 2012; 367:2089-99) Eligible participants to the dal-Outcomes trial entered a single-blind placebo run-in period of approximately 4 to 6 weeks to allow for patients to stabilise and for completion of planned revascularisation procedures. At the end of the run-in period, eligible patients in stable condition were randomised in a 1:1 ratio to 600 mg of dalcetrapib or placebo on top of evidence-based medical care for acute coronary syndrome. Cardiovascular events were adjudicated by an independent clinical endpoint committee. For the pharmacogenomics study, 6338 patients were recruited from April 2008 through July 2010 at 461 sites in 14 countries and provided written informed consent to participate to the genetic study of the dal-OUTCOMES trial. DNA was extracted from whole blood. Following genomic data cleanup, samples from 5749 Caucasian patients were used for the discovery genome-wide association study (GWAS).
This effect was not observed in the placebo arm. […] During the dalcetrapib treatment period, GG carriers had overall slightly lower LDL-cholesterol levels (adjusted P=0.048; repeated measures analysis, FIG. 4).

CCC(CC)CC1(C(=O)Nc2ccccc2SC(=O)C(C)C)CCCCC1 [dalcetrapib, thioisobutyric acid S-(2-{[1-(2-ethyl-butyl)-cyclohexanecarbonyl]-amino}-phenyl) ester]
LDL cholesterol [1]: decrease LDL cholesterol | plasma HDL cholesterol [1]: increase plasma HDL cholesterol | LDL cholesterol [2]: decrease LDL cholesterol | plasma HDL cholesterol [2]: increase plasma HDL cholesterol | CETP activity (CETP): inhibitor of CETP activity | change in total cholesterol at 1 month ([3]; rs1967309 AA): 13.8 ± 24.0 mg/dL | change in total cholesterol at 1 month ([3]; rs1967309 AG): 12.9 ± 30.3 mg/dL | change in total cholesterol at 1 month ([3]; rs1967309 GG): 10.0 ± 23.3 mg/dL | change in LDL-cholesterol after 1 month of dalcetrapib treatment ([3]; rs1967309 AA): +0.6±21.0 mg/dl | change in LDL-cholesterol after 1 month of dalcetrapib treatment ([3]; rs1967309 AG): -1.0 ± 20.0 mg/dL | change in LDL-cholesterol after 1 month of dalcetrapib treatment ([3]; rs1967309 GG): -2.0 ± 20.0 mg/dL
